The structures appear in SMILES notation.

We go through 1 molecule from patent US10086039B2, “Lamin A, an activator of longevity/anti-aging SIRT1 protein” (THE UNIVERSITY OF HONG KONG, priority 2012, dated 2018).

In assay [1] the test system is Zmpste24−/− BMSCs. Description: BMSC colony-forming assay in vitro. The format is cell-based, mouse. The text has this: (§1) Bone marrow stromal cells were isolated and cultured according to modified protocol (Enumeration and Expansion of Mouse Mesenchymal Progenitor Cells Using MESENCUILT®, Stemcell Technologies, Canada). Briefly, bone marrow cells were flushed out from femurs and tibias with α-MEM (Invitrogen, Carlsbad, Calif., USA) supplemented with 20% FBS, and plated in petri dishes. Non-adherent cells were removed on day 3 and medium was replaced every 3 days. BMSC colonies were fixed with methanol and stained with crystal violet solution on the indicated day. For magnetic enrichment, CD11b-positive population was removed using a MIDIMACS™ magnetic cell sorting kit (Miltenyi Biotec, Bergisch Gladbach, Germany), following the manufacturer's instructions. Colonies containing more than 50 cells were counted. BMSC colony forming efficiency was calculated as number of colonies formed by […] bone marrow nucleated cells.

In assay [2] the test system is H3K9ac. Put plainly: H3K9ac level in wild-type, SIRT1 null and Lmna null cells (immunoblot, immunofluorescence). Format: cell-based. On the procedure: Western blotting was performed as described previously (Liu et al., 2005). Relative band intensity was measured by IMAGE J® and normalized to corresponding wild-type or untreated controls as indicated.
In addition to acetyl p53, H3K9ac is another substrate of SIRT1 deacetylase (Wang et al., 2008). This Example further investigates the effects of resveratrol on H3K9ac in the wild-type, SIRT1^−/− or Lmna null cells. […] Anti-H3K9ac immunofluorescence staining further confirmed the lamin A-dependent activation of SIRT1 by resveratrol (FIG. 3G).
For orientation: A western blot detects proteins with antibodies after separation by electrophoresis.

Assay [3] has as its system Zmpste24−/− mice. Put plainly: HSC population in bone marrow of treated Zmpste24−/− mice (FACS). Format: in vivo, mouse. As to conditions: resveratrol 20 μg/ml in drinking water. On the procedure: Zmpste24^-/- mice have been described previously ([…] et al., 2002). Mouse experimentation was performed in accordance with the guidelines of the Committee on the Use of Live Animals in Teaching and Research (CULATR) at the University of Hong Kong. New-born Zmpste24^-/- mice and wild-type controls were fed with resveratrol (20 μg/ml) or N-acetyl Cysteine (1 mg/ml) in drinking water. The survival of resveratrol-treated, NAC-treated, or vehicle-treated Zmpste24^-/- mice was recorded and their body weight was monitored weekly. The trabecular bone organization and bone mineral density were determined by micro-CT. The survival rate was analyzed by Kaplan-Meier method and statistical comparison was performed by Log-rank (Mantel-Cox) Test. To analyze hematopoietic stem cells, mononucleated cells were collected by flushing femurs and tibias with staining medium (HBSS supplemented with 2% FBS) and stained with biotin-coupled lineage markers, Biotin-Flt3, PE-Sca-1, APC-c-Kit, and then SAv-PerCP. FACS profile analyses were performed using a BD FACSCalibur.

Assay [4] has as its target T1, rhSIRT1 association with NM (Homo sapiens, UniProt Q96EB6).
T1 sequence (Q96EB6 1-747): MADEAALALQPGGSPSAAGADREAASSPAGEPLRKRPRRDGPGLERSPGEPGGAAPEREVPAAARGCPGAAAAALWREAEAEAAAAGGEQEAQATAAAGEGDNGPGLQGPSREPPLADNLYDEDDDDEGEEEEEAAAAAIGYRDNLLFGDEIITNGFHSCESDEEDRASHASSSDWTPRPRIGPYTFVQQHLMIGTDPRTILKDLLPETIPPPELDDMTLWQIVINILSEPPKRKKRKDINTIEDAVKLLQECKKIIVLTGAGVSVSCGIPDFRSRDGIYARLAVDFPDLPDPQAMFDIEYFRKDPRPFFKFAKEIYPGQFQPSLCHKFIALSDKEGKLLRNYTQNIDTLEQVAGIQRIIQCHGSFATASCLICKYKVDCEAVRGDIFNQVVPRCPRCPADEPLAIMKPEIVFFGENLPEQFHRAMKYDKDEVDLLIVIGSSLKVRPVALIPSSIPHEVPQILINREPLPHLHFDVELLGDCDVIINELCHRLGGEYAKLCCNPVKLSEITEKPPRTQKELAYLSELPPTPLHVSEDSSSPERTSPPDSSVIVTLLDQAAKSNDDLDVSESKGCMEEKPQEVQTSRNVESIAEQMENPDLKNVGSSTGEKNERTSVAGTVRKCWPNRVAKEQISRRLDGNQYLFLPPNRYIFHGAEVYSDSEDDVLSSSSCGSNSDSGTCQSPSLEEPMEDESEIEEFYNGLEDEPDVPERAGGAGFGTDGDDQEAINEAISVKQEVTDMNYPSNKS
Description: Association of rhSIRT1 with insoluble NM fraction in test tube. Format: binding. As to conditions: NM from wild-type and Zmpste24−/− cells, resveratrol 10 μM.

Assay [5] deals with Zmpste24−/− mice. Description: BMSC colony-forming efficiency after in vivo treatment of Zmpste24−/− mice. As to conditions: resveratrol 20 μg/ml in drinking water, four months, vs vehicle. Details: species or system mouse. As for the experimental part:
Zmpste24^−/− mice have been described previously (Pendas et al., 2002). Mouse experimentation was performed in accordance with the guidelines of the Committee on the Use of Live Animals in Teaching and Research (CULATR) at the University of Hong Kong. New-born Zmpste24^−/− mice and wild-type controls were fed with resveratrol (20 μg/ml) or N-acetyl Cysteine (1 mg/ml) in drinking water. The survival of resveratrol-treated, NAC-treated, or vehicle-treated Zmpste24^−/− mice was recorded and their body weight was monitored weekly. The trabecular bone organization and bone mineral density were determined by micro-CT. The survival rate was analyzed by Kaplan-Meier method and statistical comparison was performed by Log-rank (Mantel-Cox) Test.
as §1, with “BMSC colonies were fixed with methanol and stained with crystal violet solution on the indicated day. For magnetic enrichment, CD11b-positive population was removed using a MIDIMACS™ magnetic cell sorting kit (Miltenyi Biotec, Bergisch Gladbach, Germany), following the manufacturer's instructions.” left out, “cells. […]” for “cells.”

As for `Oc1ccc(C=Cc2cc(O)cc(O)c2)cc1` [resveratrol], the “rescue effect on colony-forming capacity” value in assay [1] (Zmpste24−/− BMSCs with SIRT1 knocked down) was “attenuated”. For the same molecule, the colony-forming capacity result in assay [1] (Zmpste24−/− BMSCs, 2 μM and 10 μM, dose-dependent) is listed as “enhanced the colony-forming capacity”. The “effect on level of H3K9ac” value in assay [2] (Lmna−/− cells) and in assay [2] (SIRT1−/− cells) was “completely abrogated” each time. In addition, the “level of H3K9ac” value in assay [2] (wild-type cells) is given as “downregulated”. In addition, in assay [3], the “early decline in HSCs” value is recorded as “rescued”. Further, the “association of rhSIRT1 with NM” value in assay [4] was “enhanced the association”. In addition, the BMSC colony-forming efficiency entry in assay [5] was “significantly increased”.
